Test results taken from PubChem BioAssay AID220 (DTP/NCI, 2004).
“And” between values parts separate entries of the source, which are not always exact repeats. Equal values may be shown once. Records with an inconclusive call do not appear.

System: CD8F1 mice, subcutaneous mammary adenocarcinoma, T/C%
Test: NCI In Vivo Anticancer Drug Screen. Data for tumor model Mammary Adenocarcinoma CD8F1 (subcutaneous) in CD8F1
Settings: higher = larger tumour
Outline: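 Tumor-bearing mice, transplantable model; readout survival or tumor size; value = treated (T) / vehicle control (C).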

[1] = endpoint: median tumor weight (est.), dose: 200.0 mg/kg/injection, schedule: Q07DX005 (ip), vehicle: saline
[2] = endpoint: median tumor weight (est.), dose: 3.12 mg/kg/injection, schedule: Q07DX005 (ip), vehicle: saline with Tween-80
[3] = endpoint: median tumor weight (est.), dose: 6.25 mg/kg/injection, schedule: Q07DX005 (ip), vehicle: saline with Tween-80
[4] = endpoint: median tumor weight (est.), dose: 12.5 mg/kg/injection, schedule: Q07DX005 (ip), vehicle: saline with Tween-80
[5] = endpoint: median tumor weight (est.), dose: 25.0 mg/kg/injection, schedule: Q07DX005 (ip), vehicle: saline with Tween-80

## Nc1ccn(C2OC(CO)C(O)C2O)c(=O)n1 (stereo not drawn)
endpoint: mean tumor weight, dose: 18.75 mg/kg/injection, schedule: Q01DX009 (ip), vehicle: saline
  T/C: 84 % of control
endpoint: mean tumor weight, dose: 25.0 mg/kg/injection, schedule: Q07DX007 (ip), vehicle: saline
  T/C: 101 % of control
endpoint: mean tumor weight, dose: 37.5 mg/kg/injection, schedule: Q01DX009 (ip), vehicle: saline
  T/C: 39 % of control
endpoint: mean tumor weight, dose: 75.0 mg/kg/injection, schedule: Q07DX005 (ip), vehicle: saline
  T/C: 89 % of control
endpoint: mean tumor weight, dose: 75.0 mg/kg/injection, schedule: Q07DX007 (ip), vehicle: saline
  T/C: 98 % of control
endpoint: mean tumor weight, dose: 150.0 mg/kg/injection, schedule: Q07DX005 (ip), vehicle: saline
  T/C: 89 % of control
endpoint: mean tumor weight, dose: 300.0 mg/kg/injection, schedule: Q07DX005 (ip), vehicle: saline
  T/C: 100 % of control
endpoint: median tumor weight (est.), dose: 75.0 mg/kg/injection, schedule: Q04DX005 (ip), vehicle: saline
  T/C: 31 % of control and 55 % of control
endpoint: median tumor weight (est.), dose: 130.0 mg/kg/injection, schedule: Q07DX005 (ip), vehicle: saline
  T/C: 79 % of control
endpoint: median tumor weight (est.), dose: 150.0 mg/kg/injection, schedule: Q04DX005 (ip), vehicle: saline
  T/C: 50 % of control and 53 % of control
endpoint: median tumor weight (est.), dose: 150.0 mg/kg/injection, schedule: Q07DX004 (ip), vehicle: saline
  T/C: 22 % of control and 41 % of control
[1]
  T/C: 73 % of control
endpoint: median tumor weight (est.), dose: 300.0 mg/kg/injection, schedule: Q07DX005 (ip), vehicle: saline
  T/C: 48 % of control
endpoint: median tumor weight (est.), dose: 450.0 mg/kg/injection, schedule: Q07DX005 (ip), vehicle: saline
  T/C: 75 % of control
endpoint: median tumor weight (est.), dose: 600.0 mg/kg/injection, schedule: Q07DX005 (ip), vehicle: saline with Tween-80
  T/C: 34 % of control and 45 % of control
endpoint: median tumor weight (est.), dose: 790.0 mg/kg/injection, schedule: Q01DX001 (ip), vehicle: saline
  T/C: 74 % of control
endpoint: median tumor weight (est.), dose: 1180.0 mg/kg/injection, schedule: Q01DX001 (ip), vehicle: saline
  T/C: 54 % of control
endpoint: median tumor weight (est.), dose: 1200.0 mg/kg/injection, schedule: Q07DX005 (ip), vehicle: saline with Tween-80
  T/C: 6 % of control and 18 % of control
endpoint: median tumor weight (est.), dose: 1750.0 mg/kg/injection, schedule: Q01DX001 (ip), vehicle: saline
  T/C: 54 % of control
endpoint: median tumor weight (est.), dose: 2500.0 mg/kg/injection, schedule: Q01DX001 (ip), vehicle: saline
  T/C: 62 % of control
endpoint: median tumor weight change, dose: 790.0 mg/kg/injection, schedule: Q01DX001 (ip), vehicle: water
  T/C: 48 % of control
endpoint: median tumor weight change, dose: 1180.0 mg/kg/injection, schedule: Q01DX001 (ip), vehicle: water
  T/C: 77 % of control
endpoint: median tumor weight change, dose: 1750.0 mg/kg/injection, schedule: Q01DX001 (ip), vehicle: water
  T/C: 57 % of control
endpoint: median tumor weight change, dose: 2500.0 mg/kg/injection, schedule: Q01DX001 (ip), vehicle: water
  T/C: 33 % of control

## C[N+](C)(C)c1ncnc2nc[nH]c12
endpoint: median tumor weight (est.), dose: 25.0 mg/kg/injection, schedule: Q07DX005 (ip), vehicle: saline
  T/C: 194 % of control
endpoint: median tumor weight (est.), dose: 100.0 mg/kg/injection, schedule: Q07DX005 (ip), vehicle: saline
  T/C: 259 % of control
[1]
  T/C: 186 % of control

## CC1=C[C@@]23[C@H](C=C(C(=O)O)[C@@H]2COC(=O)[C@]32CO2)[C@@H]1C
endpoint: median tumor weight change, dose: 0.31 mg/kg/injection, schedule: Q01DX001 (ip), vehicle: saline
  T/C: 116 % of control
endpoint: median tumor weight change, dose: 0.62 mg/kg/injection, schedule: Q01DX001 (ip), vehicle: saline
  T/C: 115 % of control
endpoint: median tumor weight change, dose: 1.25 mg/kg/injection, schedule: Q01DX001 (ip), vehicle: saline
  T/C: 98 % of control
endpoint: median tumor weight change, dose: 2.5 mg/kg/injection, schedule: Q01DX001 (ip), vehicle: saline
  T/C: 85 % of control
endpoint: median tumor weight change, dose: 5.0 mg/kg/injection, schedule: Q01DX001 (ip), vehicle: saline
  T/C: 100 % of control

## CN=C(N)N/N=C(\c1ccccc1)c1ccc(Br)cc1
endpoint: median tumor weight change, dose: 15.6 mg/kg/injection, schedule: Q01DX001 (ip), vehicle: saline with Tween-80
  T/C: 71 % of control
endpoint: median tumor weight change, dose: 31.25 mg/kg/injection, schedule: Q01DX001 (ip), vehicle: saline with Tween-80
  T/C: 56 % of control
endpoint: median tumor weight change, dose: 62.5 mg/kg/injection, schedule: Q01DX001 (ip), vehicle: saline with Tween-80
  T/C: 55 % of control

## COc1cccc2c1C(=O)c1c(O)c3c(c(O)c1C2=O)C[C@@](O)(C(C)=O)C[C@@H]3OC1CC(N(C)C)C(O)C(C)O1 (stereo partly drawn)
endpoint: mean tumor weight, dose: 1.0 mg/kg/injection, schedule: Q07DX006 (ip), vehicle: water
  T/C: 197 % of control
endpoint: mean tumor weight, dose: 2.0 mg/kg/injection, schedule: Q07DX006 (ip), vehicle: water
  T/C: 73 % of control
endpoint: mean tumor weight, dose: 4.0 mg/kg/injection, schedule: Q07DX006 (ip), vehicle: water
  T/C: 30 % of control
endpoint: mean tumor weight, dose: 8.0 mg/kg/injection, schedule: Q07DX006 (ip), vehicle: water
  T/C: 1 % of control
endpoint: median tumor weight (est.), dose: 1.0 mg/kg/injection, schedule: Q07DX005 (ip), vehicle: water
  T/C: 108 % of control
endpoint: median tumor weight (est.), dose: 2.0 mg/kg/injection, schedule: Q07DX005 (ip), vehicle: water
  T/C: 63 % of control
endpoint: median tumor weight (est.), dose: 4.0 mg/kg/injection, schedule: Q07DX005 (ip), vehicle: water
  T/C: 45 % of control
endpoint: median tumor weight (est.), dose: 8.0 mg/kg/injection, schedule: Q07DX005 (ip), vehicle: water
  T/C: 42 % of control

## CCCC(=O)O
endpoint: median tumor weight change, dose: 7.81 mg/kg/injection, schedule: Q01DX001 (ip), vehicle: saline
  T/C: 88 % of control
endpoint: median tumor weight change, dose: 15.62 mg/kg/injection, schedule: Q01DX001 (ip), vehicle: saline
  T/C: 166 % of control
endpoint: median tumor weight change, dose: 31.25 mg/kg/injection, schedule: Q01DX001 (ip), vehicle: saline
  T/C: 97 % of control
endpoint: median tumor weight change, dose: 62.5 mg/kg/injection, schedule: Q01DX001 (ip), vehicle: saline
  T/C: 80 % of control
endpoint: median tumor weight change, dose: 125.0 mg/kg/injection, schedule: Q01DX001 (ip), vehicle: saline
  T/C: 71 % of control

## C/C(=N/NC(N)=S)c1ccc2ccccc2c1
[2]
  T/C: 152 % of control
[3]
  T/C: 95 % of control and 100 % of control
[4]
  T/C: 69 % of control and 72 % of control

## CC(=O)Nc1ccc(C(=O)C=O)cc1
[4]
  T/C: 114 % of control
[5]
  T/C: 117 % of control
endpoint: median tumor weight (est.), dose: 50.0 mg/kg/injection, schedule: Q07DX005 (ip), vehicle: saline with Tween-80
  T/C: 84 % of control
endpoint: median tumor weight (est.), dose: 100.0 mg/kg/injection, schedule: Q07DX005 (ip), vehicle: saline with Tween-80
  T/C: 93 % of control
endpoint: median tumor weight (est.), dose: 200.0 mg/kg/injection, schedule: Q07DX005 (ip), vehicle: saline with Tween-80
  T/C: 80 % of control

## COC1CC(C)C(OC)C2=CC(=O)C=C(NC(=O)/C(C)=C/C=C\C(C)C(OC(N)=O)/C(C)=C\C(C)C1OC)C2=O (stereo not drawn)
endpoint: median tumor weight change, dose: 6.25 mg/kg/injection, schedule: Q01DX001 (ip), vehicle: saline + alcohol
  T/C: 152 % of control
endpoint: median tumor weight change, dose: 12.5 mg/kg/injection, schedule: Q01DX001 (ip), vehicle: saline + alcohol
  T/C: 91 % of control
endpoint: median tumor weight change, dose: 25.0 mg/kg/injection, schedule: Q01DX001 (ip), vehicle: saline + alcohol
  T/C: 72 % of control

## CC[C@H]1CN2CCc3cc(OC)c(OC)cc3[C@@H]2C[C@@H]1C[C@@H]1c2cc(OC)c(OC)cc2CCN1CCN(CCCl)CCCl
endpoint: mean tumor weight, dose: 2.5 mg/kg/injection, schedule: Q07DX005 (ip), vehicle: Klucel (hydroxypropylcellulose) (HPC)
  T/C: 195 % of control
endpoint: mean tumor weight, dose: 5.0 mg/kg/injection, schedule: Q07DX005 (ip), vehicle: Klucel (hydroxypropylcellulose) (HPC)
  T/C: 181 % of control
endpoint: mean tumor weight, dose: 5.0 mg/kg/injection, schedule: Q07DX006 (ip), vehicle: Klucel (hydroxypropylcellulose) (HPC)
  T/C: 89 % of control
endpoint: mean tumor weight, dose: 10.0 mg/kg/injection, schedule: Q07DX005 (ip), vehicle: Klucel (hydroxypropylcellulose) (HPC)
  T/C: 160 % of control
endpoint: mean tumor weight, dose: 10.0 mg/kg/injection, schedule: Q07DX006 (ip), vehicle: Klucel (hydroxypropylcellulose) (HPC)
  T/C: 169 % of control
endpoint: mean tumor weight, dose: 20.0 mg/kg/injection, schedule: Q07DX006 (ip), vehicle: Klucel (hydroxypropylcellulose) (HPC)
  T/C: 159 % of control

## O=Cc1ccc(C=O)c(Cl)c1
endpoint: median tumor weight change, dose: 125.0 mg/kg/injection, schedule: Q01DX001 (ip), vehicle: Klucel (hydroxypropylcellulose) (HPC)
  T/C: 104 % of control
endpoint: median tumor weight change, dose: 250.0 mg/kg/injection, schedule: Q01DX001 (ip), vehicle: Klucel (hydroxypropylcellulose) (HPC)
  T/C: 99 % of control
endpoint: median tumor weight change, dose: 500.0 mg/kg/injection, schedule: Q01DX001 (ip), vehicle: Klucel (hydroxypropylcellulose) (HPC)
  T/C: 79 % of control
endpoint: median tumor weight change, dose: 1000.0 mg/kg/injection, schedule: Q01DX001 (ip), vehicle: Klucel (hydroxypropylcellulose) (HPC)
  T/C: 117 % of control
endpoint: median tumor weight change, dose: 2000.0 mg/kg/injection, schedule: Q01DX001 (ip), vehicle: Klucel (hydroxypropylcellulose) (HPC)
  T/C: 67 % of control

## COc1cc2cc(c1Cl)N(C)C(=O)CC(OC(=O)C(C)C)C1(C)OC1C(C)C1CC(O)(NC(=O)O1)C(OC)/C=C/C=C(C)C2 (stereo not drawn)
endpoint: median tumor weight (est.), dose: 9.3 micrograms/kg/injection, schedule: Q07DX005 (ip), vehicle: saline + alcohol
  T/C: 79 % of control
endpoint: median tumor weight (est.), dose: 18.7 micrograms/kg/injection, schedule: Q07DX005 (ip), vehicle: saline + alcohol
  T/C: 103 % of control
endpoint: median tumor weight (est.), dose: 75.0 micrograms/kg/injection, schedule: Q07DX005 (ip), vehicle: saline + alcohol
  T/C: 89 % of control
endpoint: median tumor weight (est.), dose: 150.0 micrograms/kg/injection, schedule: Q07DX005 (ip), vehicle: saline + alcohol
  T/C: 45 % of control

## c1ccc2c(c1)nnn1c3cnccc3nc21
[2]
  T/C: 115 % of control
[3]
  T/C: 85 % of control
[4]
  T/C: 105 % of control
[5]
  T/C: 124 % of control
